Data from US9630977B2, “Cephalosporin derivatives and pharmaceutical compositions thereof” (Legochem Biosciences, Inc., priority 2011, dated 2017).
In brackets after ≈: the same amount, converted by molar mass.

Assays:
[1] = system: K. pneumoniae β14; assay: In vitro antibacterial activity test (broth microdilution); type: cell-based; settings: Klebsiella pneumoniae
Summary of the method: (§1)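 Stocks at 10,240 ug/mL in DMSO, serially diluted in DMSO then water to final 0.0626–128 ug/mL (2.5% V/V DMSO). CLSI broth microdilution; MIC90, ug/mL.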

[2] = system: P. aeruginosa 6065Y; assay: as above; type: cell-based; settings: Pseudomonas aeruginosa, 6065Y
Summary of the method: as §1

[3] = system: P. aeruginosa 43; assay: as above; type: cell-based; settings: Pseudomonas aeruginosa, 43
Summary of the method: as §1

[4] = system: A. baumannii 49; assay: as above; type: cell-based; settings: Acinetobacter baumannii, 49, A. baumannii 49
Summary of the method: as §1

[5] = system: E. cloacae β19; assay: as above; type: cell-based; settings: Enterobacter cloacae
Summary of the method: as §1

[6] = system: K. pneumoniae 2011E; assay: as above; type: cell-based; settings: Klebsiella pneumoniae, 2011E
Summary of the method: as §1

[7] = system: A. baumannii 52; assay: as above; type: cell-based; settings: Acinetobacter baumannii, 52
Summary of the method: as §1

[8] = system: K. pneumoniae β9; assay: as above; type: cell-based; settings: Klebsiella pneumoniae
Summary of the method: as §1

[9] = system: M. catarrhalis 2524; assay: as above; type: cell-based; settings: Moraxella catarrhalis, 2524
Summary of the method: as §1

[10] = system: K. pneumoniae β13; assay: as above; type: cell-based; settings: Klebsiella pneumoniae
Summary of the method: as §1

[11] = system: K. pneumoniae β11; assay: as above; type: cell-based; settings: Klebsiella pneumoniae
Summary of the method: as §1

[12] = system: P. aeruginosa 37; assay: as above; type: cell-based; settings: Pseudomonas aeruginosa, 37, P. aeruginosa 37
Summary of the method: as §1

[13] = system: K. pneumoniae β10; assay: as above; type: cell-based; settings: Klebsiella pneumoniae
Summary of the method: as §1

[14] = system: P. aeruginosa 40; assay: as above; type: cell-based; settings: Pseudomonas aeruginosa, 40
Summary of the method: as §1

[15] = system: E. coli β4; assay: as above; type: cell-based; settings: Escherichia coli
Summary of the method: as §1

[16] = system: A. baumannii 46; assay: as above; type: cell-based; settings: Acinetobacter baumannii, 46, A. baumannii 46
Summary of the method: as §1

[17] = system: A. calcoaceticus ATCC15473; assay: as above; type: cell-based; settings: Acinetobacter calcoaceticus, ATCC15473, A. calcoaceticus ATCC15473
Summary of the method: as §1

[18] = system: E. coli AG100; assay: as above; type: cell-based; settings: Escherichia coli, AG100
Summary of the method: as §1

[19] = system: P. aeruginosa 1912E; assay: as above; type: cell-based; settings: Pseudomonas aeruginosa, 1912E
Summary of the method: as §1

[20] = system: K. pneumoniae (38 clinical isolates); assay: Antibacterial activity on representative drug-resistance bacteria: number of clinical isolates per MIC value; type: cell-based; settings: K. pneumomiae (N = 38)
Experimental: (§2) The in vitro antibacterial activity was evaluated by measuring MIC90 (ug/mL) of each of the compounds of Examples 1 to 68, which is defined as the lowest concentration of an antibiotic that will inhibit the visible growth of 90% of microorganisms after incubation as compared with a control group to which the antibiotic is not treated. MIC90 values were measured by the broth microdilution method developed by the Clinical and Laboratory Standards Institute (CLSI) (see CLSI M7-A5, Methods for Dilution Antimicrobial Susceptibility Test for Bacteria that Grow Aerobically-Fifth Edition (2000): CLSI, Villanova, Pa.).
(§3) Test compounds each (the cephalosporin derivative compounds prepared in Examples 1 to 68) were dissolved in DMSO at the concentration of 10,240 ug/mL, were diluted by two fold with DMSO, and then were diluted by twenty fold with sterilized distilled water. The final concentration in the antibacterial activity test was in the range of […] to 128 ug/mL, and the final concentration of DMSO used as an adjuvant was 2.5% (V/V).

[21] = system: P. aeruginosa (16 clinical isolates); assay: as above; type: cell-based; settings: P. aeruginosa (N = 16)
Experimental: as §2, §3

[22] = system: A. baumannii (6 clinical isolates); assay: as above; type: cell-based; settings: A. baumanni (N = 6)
Experimental: as §2, §3

[23] = system: P. aeruginosa R1023; assay: In vivo efficacy, whole-body infected mouse model, Ceftazidime-resistant bacteria;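 for Survival rate: each column one dose of 5 10 20 or 40 mg/kg given sc at 1 h and 4 h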; parameters: species or system ICR mouse; settings: for Survival rate: subcutaneous 1 h and 4 h after infection, P. aeruginosa R1023 (2 × 10^6 CFU/mouse), four days
Experimental: Pharmaceutical efficacy of the cephalosporin derivative compounds according to the present invention was evaluated in a whole-body infected mouse model. Tables 3 and 4 show survival rate and ED50 values for the two compounds with excellent antibacterial activity with regard to an infected mouse by a drug-sensitive bacteria and a drug-resistant bacteria.
Test animals: 3 week old male ICR mouse, weight 18˜22 g; 5 mice/group.
Lab conditions: Temperature of 23±2° C.; humidity of 55±20%.
Administration method: Inducing whole-body infection by bacterial solution followed by subcutaneous injection (0.2 mL) after 1 hour and 4 hours.
Test method: Cultured bacteria were diluted with 0.9% NaCl to prepare a bacterial solution having a concentration that is 5 to 10 times of […]. 0.5 mL of bacterial solution was injected through abdominal cavity to induce whole-body infection. Test compounds were administered in four different amounts, which were designed considering in vitro MIC values of the test bacteria. After 1 hour and 4 hours, the four different amounts of the test compounds were subcutaneously administered. Survival rates were measured for four days and ED50 values were calculated according to the Probit method.

| Compound | MIC90 [1] [µg/mL] | MIC90 [2] [µg/mL] | MIC90 [3] [µg/mL] | MIC90 [4] [µg/mL] | MIC90 [5] [µg/mL] | MIC90 [6] [µg/mL] | MIC90 [7] [µg/mL] | MIC90 [8] [µg/mL] | MIC90 [9] [µg/mL] | MIC90 [10] [µg/mL] | MIC90 [11] [µg/mL] | MIC90 [12] [µg/mL] | MIC90 [13] [µg/mL] | MIC90 [14] [µg/mL] | MIC90 [15] [µg/mL] | MIC90 [16] [µg/mL] | MIC90 [17] [µg/mL] | MIC90 [18] [µg/mL] | MIC90 [19] [µg/mL] | further results |
| --- | --- | --- | --- | --- | --- | --- | --- | --- | --- | --- | --- | --- | --- | --- | --- | --- | --- | --- | --- | --- |
| CC(C)(O/N=C(\C(=O)N[C@@H]1C(=O)N2C(C(=O)[O-])=C(/C=C/C[n+]3cnc(N)c(NC(=O)CCN)c3N)CSC12)c1csc(N)n1)C(=O)O (stereo partly shown) [Compound 66] | 1 (≈ 1.45 µM) | 16 (≈ 23.2 µM) | > 128 | > 128 | 0.25 (≈ 0.362 µM) | 0.5 (≈ 0.725 µM) | > 128 | 0.5 (≈ 0.725 µM) | < 0.0625 | 0.5 (≈ 0.725 µM) | 16 (≈ 23.2 µM) | 16 (≈ 23.2 µM) | 0.5 (≈ 0.725 µM) | 8 (≈ 11.6 µM) | 0.25 (≈ 0.362 µM) | 16 (≈ 23.2 µM) | 2 (≈ 2.9 µM) | 0.25 (≈ 0.362 µM) | 4 (≈ 5.8 µM) | – |
| CC(C)(O/N=C(\C(=O)N[C@@H]1C(=O)N2C(C(=O)[O-])=C(/C=C/C[n+]3cnc(N)c(NC(=O)CCCN)c3N)CSC12)c1nc(N)sc1Cl)C(=O)O (stereo partly shown) [Compound 67] | 4 (≈ 5.42 µM) | 32 (≈ 43.3 µM) | > 128 | 64 (≈ 86.7 µM) | 32 (≈ 43.3 µM) | 2 (≈ 2.71 µM) | 64 (≈ 86.7 µM) | 8 (≈ 10.8 µM) | < 0.0625 | 2 (≈ 2.71 µM) | 8 (≈ 10.8 µM) | 16 (≈ 21.7 µM) | 4 (≈ 5.42 µM) | 16 (≈ 21.7 µM) | 2 (≈ 2.71 µM) | 64 (≈ 86.7 µM) | 4 (≈ 5.42 µM) | 0.5 (≈ 0.677 µM) | 4 (≈ 5.42 µM) | – |
| C[C@@H](O)[C@H]1C(=O)N2C(C(=O)O)=C(S[C@@H]3CN[C@H](CNS(N)(=O)=O)C3)[C@H](C)[C@H]12 [Doripenem, reference compound] | – | – | – | – | – | – | – | – | – | – | – | – | – | – | – | – | – | – | – | number of clinical isolates that showed the respective MIC value ([20]; MIC 0.0625 ug/mL): 1; number of clinical isolates that showed the respective MIC value ([20]; MIC 0.125 ug/mL): 6; number of clinical isolates that showed the respective MIC value ([20]; MIC 0.25 ug/mL): 3; number of clinical isolates that showed the respective MIC value ([20]; MIC 0.5 ug/mL): 5; number of clinical isolates that showed the respective MIC value ([20]; MIC 1 ug/mL): 6; number of clinical isolates that showed the respective MIC value ([20]; MIC 2 ug/mL): 5; number of clinical isolates that showed the respective MIC value ([20]; MIC 8 ug/mL): 4; number of clinical isolates that showed the respective MIC value ([20]; MIC 16 ug/mL): 2; number of clinical isolates that showed the respective MIC value ([20]; MIC <0.0625 ug/mL): 6; number of clinical isolates that showed the respective MIC value ([21]; MIC 4 ug/mL): 1; number of clinical isolates that showed the respective MIC value ([21]; MIC 8 ug/mL): 1; number of clinical isolates that showed the respective MIC value ([21]; MIC 16 ug/mL): 5; number of clinical isolates that showed the respective MIC value ([21]; MIC >16 ug/mL): 9; number of clinical isolates that showed the respective MIC value ([22]; MIC 16 ug/mL): 1; number of clinical isolates that showed the respective MIC value ([22]; MIC >16 ug/mL): 5; ED50 ([23]; Pseudomonas aeruginosa, sc, Probit method, subcutaneous, mouse infected by Ceftazidime-resistant P. aeruginosa R1023): 28 mg/kg; Survival rate ([23]; administered amount 5 mg/kg): 0%; Survival rate ([23]; administered amount 10 mg/kg): 20%; Survival rate ([23]; administered amount 20 mg/kg): 20%; Survival rate ([23]; administered amount 40 mg/kg): 80% |
